Source: patent US4377687A, “Analogs of 1-(2-chloroethyl)-1-nitroso-3-(cycloheyl)-urea substituted by heterocyclic rings or alkyl radicals” (Stiftung Deutsches Krebsforschungszentrum, priority 1978, dated 1983)

Tests used:
[1] = system: rat leukemia L 5222; assay: Chemotherapeutic activity against rat Leukemia L5222; type: in vivo, rat (BD IX rats)
Experimental: Chemotherapeutic activity of methylformylamino-CNU against rat Leukemia L5222 (CNU=chloroethyl-nitroso-urea)
The compound to be tested was solved in Chremophor EL/ethanol/physiological saline and a single dose was administered intraperitoneally into tumor inoculated BD IX rats. The experiment involved an untreated control group and a number of treated groups. The doses used and the effects of the praeterminal treatment are summarized in the following Table from which the cures (animals free of tumor after 120 days) and the increase in life span (ILS, expressed as percentage of survival of the treated test group to the untreated control group) are evident.
Considering the fact that the true measure of the effectiveness of a drug against a neoplastic desease is the ability of the drug to kill the neoplastic cells at dosages that are not toxic to the host animal and that a quantitative evaluation of drug action is usually obtained by using the L1210 leucemia system in mice, it will be realized that in this test the tumor cells are injected into the peritoneal cavity of a mouse which thereafter is treated with the drug to be tested at a very early time after the inoculation of the tumor, i.e. at the first or second day after tumor inoculation. Thus such screening is done under very favourable test conditions for the drug. Contrary thereto the administration of the drug to be tested is performed relatively late in the case of the rat leucemia L5222, i.e. at the 8th day after tumor inoculation. It must, therefore, be taken that at that time tumor cells have colonized the cerebral region, i.e. the meninges, so that cures can only be obtained if the drug has an activity high enough to kill the leucemia cells in the cerebral region in a praeterminal state. Thus by far more severe test conditions are involved when treating rat leucemia L5222 or type Yoshida sarcoma which is a tumor model and which are hard to influence by known drugs.

[2] = system: Yoshida sarcoma; type: in vivo, rat (male Sprague-Dawley rats)
Experimental: The chemotherapeutic activity of nitrosoureas was compared in antitumor tests using Yoshida sarcoma ascited cells implanted into the wall of the descending colon in Sprague-Dawley rats.
(§1) Male Sprague-Dawley rats were used in the experiments. Yoshida sarcome in ascites form was maintained in the same strain of rats by serial intraperitoneal injection of 0,5 ml of ascites fluid.
(§2) 3×10^6 cells were injected into the colon wall in a manner known per se. The chemotherapeutic treatment was carried out on the eighth day after implantation of the tumor cells.
(§3) Water-insoluble compounds were dissolved in Cremophor EL/ethanol/physiological saline (20:20:60: vol.%). Water-soluble substances were dissolved in physiological saline. Cremophor EL is a surfactant on the basis of polyethoxylated castor oil. All test compounds were administered introperitoneally. The nitrosoureas were applied at approximately equitoxic doses corresponding to about 80% of the acute LD50 values observed in healthy rats of the same strain over a 28-day observation period.
Each experiment involved an untreated control group and a varying number of treated groups. Individual survival times were counted as days after tumor inoculation. At the time of death a record of whether an animal was tumor-free or not was made. All animals alive 120 days after tumor inoculation were killed. Animals that according to macroscopic examination had no tumor at the end of the experiment were considered as cured. Since in a number of control rats also no tumors occurred after 120 days the differences in cures between controls and treated animals rather than absolute numbers are reported. Differences in survival were evaluated statistically by individual comparisons between treated rats and controls using a nonparametric log-rank test (Kalbfleisch and Prentice, The statistical analysis of failure time data, Wiley, New York, 1979). Numerical evaluation was performed using a computerized system.

[3] = system: Yoshida sarcoma; details: previous experiments; i.p.; cited from earlier work
[4] = Mean animal weight / weight gain after tumor transplantation; type: in vivo, rat (Sprague-Dawley rats); details: CP 70 (exp. 1-3), BCNU 25, MeCCNU 45 (exp. 1), picolyl-3-CNU 25, its HCl 25 (exp. 2), morpholino-CNU 28, piperidino-CNU 15 (exp. 3), dimethylmorpholino-CNU 45 mg/kg (exp. 4)
Experimental: as §1, §2, §3
In all treated animals and at all doses tested the mean weight gain was lower than in the controls. Table 3 gives the mean animal weights measured 50 and 100 days after tumor transplantation in experiments 1 to 5.

[5] = single i.p. dose printed 279 mg/kg
[6] = Experiment 1, CP 70, BCNU 25, MeCCNU 45 mg/kg
[7] = Experiment 1, CP 70, BCNU 25, MeCCNU 45 mg/kg, initial animals CP 30, BCNU 30, MeCCNU 29
[8] = Experiment 1, i.p. day 8, CP 70, BCNU 25, MeCCNU 45 mg/kg

Structure (SMILES): CN(C=O)NC(=O)N(CCCl)N=O [methylformylamino-CNU, 1-(2-chloroethyl)-1-nitroso-3-(methyl-formyl-amino)urea]
- effectiveness in rat leukemia L 5222 (in words) ([1]; rat, in vivo): active
- ILS (increase in life span) ([1]; single i.p. dose 7 mg/kg): 70%
- cures (animals free of tumor after 120 days) ([1]; single i.p. dose 7 mg/kg, 7 mg/kg): 3/8 and three cured animals out of eight
- ILS (increase in life span) ([1]; single i.p. dose 70 mg/kg): 610%
- cures (animals free of tumor after 120 days) ([1]; single i.p. dose 70 mg/kg): 3/9
- ILS (increase in life span) ([1]; single i.p. dose 88 mg/kg): 230%
- cures (animals free of tumor after 120 days) ([1]; single i.p. dose 88 mg/kg): 2/6
- ILS (increase in life span) ([1]; single i.p. dose 111 mg/kg): 250%
- ILS (increase in life span) ([1]; single i.p. dose 176 mg/kg): 40%
- ILS (increase in life span) ([1]; single i.p. dose 11,1 mg/kg): 100%
- cures (animals free of tumor after 120 days) ([1]; single i.p. dose 11,1 mg/kg): 2/8
- ILS (increase in life span) ([1]; single i.p. dose 17,6 mg/kg): 150%
- cures (animals free of tumor after 120 days) ([1]; single i.p. dose 17,6 mg/kg): 2/8
- ILS (increase in life span) ([1]; single i.p. dose 44,2 mg/kg): 150%
- cures (animals free of tumor after 120 days) ([1]; single i.p. dose 44,2 mg/kg): 2/8
- ILS (increase in life span) [1, 5]: 175%
- cures (animals free of tumor after 120 days) [1, 5]: 3/8

Structure (SMILES): O=NN(CCCl)C(=O)NCCCl [BCNU, 1,3-bis-(2-chloroethyl)-1-nitrosourea]
- tumor-free animals at the end of the experiment (in words) ([2]; 120 days): increased the rate of tumor-free animals alive at the end of the experiment
- increase in tumor-free animals (cures) above controls ([2]; 120 days, CP (exp. 1-3), BCNU, MeCCNU 45, dimethylmorpholine-CNU 45, piperidino-CNU 15, picolyl-3-CNU.HCl 25 mg/kg): 18%
- D1-120 = difference (%) between tf1-120 of treated and untreated animals [2, 6]: 22%
- D120 = difference (%) between tf120 of treated and untreated animals [2, 6]: 18%
- tf1-120 (%) (tf120 + animals dying of toxicity) [2, 6]: 47%
- tf120 (%) (animals surviving day 120 without tumor) [2, 6]: 43%
- tf1-120, No. (tf120 + animals dying of toxicity) [2, 7]: 14
- tf120, No. (animals surviving day 120 without tumor) [2, 7]: 13
- % M (median survival time, untreated control = 100) [2, 8]: 160%
- M = median survival time [2, 8]: 74 days
- activity against Yoshida sarcoma, shown previously (in words) [3]: active
- Mean animal weight on day 50 ([4]; day 50 after tumor transplantation): 270 g
- Mean animal weight on day 100 ([4]; day 100 after tumor transplantation): 300 g
